In patent US20040167028A1, “Method of introducing a substance into plant tissue” (HAMAMATSU PHOTONICS K.K., priority 2002, published 2004):
Read-outs that look alike come from different tables or passages of the source.

System: tomato plant
Excerpt: According to the method of the invention, information relating to the amount, speed and site of introduction of the substance introduced into the plant tissue can be obtained, for example, using a positron imaging apparatus. With a positron imaging apparatus, information on the measuring target is obtained by introducing a substance labeled with positron-emitting RI as a tracer into a living body, and measuring the pair of gamma-rays produced as the positrons emitted from the RI-labeled substance are annihilated against electrons in the substance (see, for example, Japanese Patent Application Laid-Open No. 9-33658).
FIG. 5 is a view showing the basic construction of a positron imaging apparatus. The apparatus shown in this drawing comprises a pair of two-dimensional radiation detectors 60 and 70. The two-dimensional radiation detectors 60 and 70 in turn comprise scintillator arrays 61,71 each composed of a plurality of scintillators, and photodetectors 62,72 for detection of scintillation light generated by incidence of the gamma-rays on the scintillator arrays 61,71. The radiation detectors 60,70 are housed in separate detector cases 65,75 with the radiation incidence planes of the scintillator arrays 61,71 facing each other.
In this construction, a pair of gamma-rays emitted from a measuring target B (a plant, according to the invention) placed on a prescribed measuring surface S between the radiation detectors 60,70 are each detected by the radiation detectors 60,70. The detection signals are outputted through connected circuit systems 63,73 having amplifier circuits, etc. for amplification of the detection signals. The outputted amplification signals are inputted into a signal processing circuit 80, and the signal processing circuit 80 identifies coincident electron/positron annihilation events and calculates the position of the annihilation, based on the detection signals from the two radiation detectors 60,70.
Tomato (Merryroad variety) approximately 4 weeks after sprouting was used as the test plant. After removing a leaf at the end of the 6th side branch from the bottom of the main stem, the end was cut in the water for use as the absorption site (conductive tissue-exposed side branch) FIG. 6 is a schematic view showing the arrangement of the main stem 3 and side branches 2 of the tomato plant used in this experiment. The absorption site was located at the end of the side branch 2 extending toward the left in FIG. 6.
FIG. 7 is an integrated image obtained from the positron imaging apparatus, with the integrated image positioned to correspond to the positions of the main stem and side branch in FIG. 6.
Next, all of the leaves on the substance-absorbed side branch 2 of the tomato plant used in Comparative Example 1 were removed. […] FIG. 8 is the integrated image obtained from the positron imaging apparatus, with the integrated image positioned to correspond to the positions of the, main stem and side branch in FIG. 6.
Using a different tomato plant from that used in Example 1 (the same variety but a different plant), a leaf at the end of the 6th side branch from the bottom of the main stem was removed in the same manner as Example 1, and the end was cut in the water for use as the absorption site in the same manner as Comparative Example 1. The other leaves on that side branch were shaded by covering them with aluminum foil to inhibit transpiration. FIG. 10 is a schematic view showing the arrangement of the main stem 3 and side branches 2 of the tomato plant used in this experiment. The absorption site was located at the end of the upper side branch 2 of the side branches 2 extending toward the left in FIG. 10.

O=[N+]([O-])O [^13N-labeled nitric acid]
migration of the substance in the main stem (integrated image) (Comparative Example 1, side branch with leaves, no inhibition of transpiration, FIG. 7): almost all of the substance migrated downward in the main stem
introduction of the substance into the side branch (integrated image) (Comparative Example 2, leaves unshaded, no inhibition of transpiration, FIG. 12): very little of the substance had been introduced
amount of substance introduction (RI accumulation / nitric acid absorption at the node) (Example 1, all leaves of the absorbing side branch removed, versus Comparative Example 1 with leaves, observed for 1 hour, FIG. 9): over twice
migration of the substance in the main stem (integrated image) (Example 1, leaves of the side branch removed, FIG. 8): Upward migration was also confirmed in the main stem
amount of substance introduction (RI accumulation at the node) (Example 2, leaves of the absorbing side branch shaded with aluminum foil, versus Comparative Example 2 unshaded, FIG. 13): over twice
migration of the substance in the main stem (integrated image) (Example 2, leaves shaded to inhibit transpiration, FIG. 11): upward migration occurred in the main stem
introduction of the substance into the plant (integrated image) (Example 4, sieve tubes of the side branch eliminated by heating at about 100° C., vessels alone, FIG. 16): the substance had been introduced into the plant
